Experimental findings from ChEMBL document CHEMBL4387741, “Optimization of novel reversible Bruton's tyrosine kinase inhibitors identified using Tethering-fragment-based screens” (Bioorg Med Chem, 2019) are described below.

The term inhibition denotes the share of the control response that was lost under treatment.

SMILES strings stand for the structures.

Test [1] has as its target Calcium/calmodulin-dependent protein kinase type 1G (Homo sapiens) (UniProt Q96NX5). As to the kind of experiment: Inhibition of wild-type human partial length CAMK1G (M1 to A342 residues) expressed in bacterial expression system at 1 uM by Kinomescan method relative to control.
The target of test [2] is Dual specificity protein kinase CLK3 (Homo sapiens) (UniProt P49761). Briefly: Inhibition of wild-type human full length CLK3 (M1 to R490 residues) expressed in bacterial expression system at 1 uM by Kinomescan method relative to control.
For test [3], the target named is Calcium/calmodulin-dependent protein kinase type II subunit delta (Homo sapiens) (UniProt Q13557). Briefly: Inhibition of wild-type human partial length CAMK2D (M1 to E329 residues) expressed in bacterial expression system at 1 uM by Kinomescan method relative to control.
For test [4], the system named is Phosphatidylinositol 4,5-bisphosphate 3-kinase catalytic subunit alpha isoform (Homo sapiens), P42336 [E542K]. Briefly: Inhibition of human partial length PIK3CA E542K mutant (R108 to N1068 residues) expressed in mammalian expression system at 1 uM by Kinomescan method relative to control.
Test [5] has as its target Activin receptor type-1-like (Homo sapiens) (UniProt P37023). As to the kind of experiment: Inhibition of wild-type human ACVRL1 (L164 to Q503 residues) expressed in bacterial expression system at 1 uM by Kinomescan method relative to control.
For test [6], the target named is cGMP-dependent protein kinase 2 (Homo sapiens) (UniProt Q13237). As to the kind of experiment: Inhibition of wild-type human partial length PRKG2 (S422 to F762 residues) expressed in mammalian expression system at 1 uM by Kinomescan method relative to control.
cGMP-dependent protein kinase 2 (Homo sapiens), sequence (Q13237 whole entry, the tested form may be a part): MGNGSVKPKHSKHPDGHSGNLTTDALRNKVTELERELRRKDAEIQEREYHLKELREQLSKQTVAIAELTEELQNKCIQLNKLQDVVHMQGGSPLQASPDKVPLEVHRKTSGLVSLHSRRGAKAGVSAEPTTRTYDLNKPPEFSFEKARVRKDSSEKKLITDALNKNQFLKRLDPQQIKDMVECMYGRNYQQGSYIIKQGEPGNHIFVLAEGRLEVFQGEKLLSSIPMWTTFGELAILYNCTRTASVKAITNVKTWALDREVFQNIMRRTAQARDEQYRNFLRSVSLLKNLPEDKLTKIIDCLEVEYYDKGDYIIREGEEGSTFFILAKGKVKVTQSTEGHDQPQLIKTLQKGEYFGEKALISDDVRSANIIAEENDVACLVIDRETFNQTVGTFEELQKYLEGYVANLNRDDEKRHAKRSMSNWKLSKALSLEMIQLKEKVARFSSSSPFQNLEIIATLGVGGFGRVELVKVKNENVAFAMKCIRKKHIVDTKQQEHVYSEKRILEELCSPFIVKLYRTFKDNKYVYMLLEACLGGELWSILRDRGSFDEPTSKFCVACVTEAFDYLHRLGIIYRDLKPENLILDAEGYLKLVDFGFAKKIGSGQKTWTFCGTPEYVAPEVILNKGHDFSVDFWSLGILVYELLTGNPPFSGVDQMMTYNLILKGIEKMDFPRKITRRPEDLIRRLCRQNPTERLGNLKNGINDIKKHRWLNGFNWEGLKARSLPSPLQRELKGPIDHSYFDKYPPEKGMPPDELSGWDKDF
Test [7] addresses Mitogen-activated protein kinase 8 (Homo sapiens) (UniProt P45983). As to the kind of experiment: Inhibition of wild-type human full length JNK1 (M1 to Q384 residues) expressed in mammalian expression system at 1 uM by Kinomescan method relative to control.
Test [8] deals with Receptor-type tyrosine-protein kinase FLT3 (Homo sapiens), P36888 [D835Y]. As to the kind of experiment: Inhibition of human partial length FLT3 D835Y mutant (Q580 to Y969 residues) expressed in bacterial expression system at 1 uM by Kinomescan method relative to control.
Test [9] has as its target Serine/threonine-protein kinase 33 (Homo sapiens) (UniProt Q9BYT3). As to the kind of experiment: Inhibition of wild-type human full length STK33 (M1 to L514 residues) expressed in bacterial expression system at 1 uM by Kinomescan method relative to control.
Test [10] addresses Tyrosine-protein kinase Lck (Homo sapiens) (UniProt P06239). As to the kind of experiment: Inhibition of wild-type human partial length LCK (R207 to P509 residues) expressed in bacterial expression system at 1 uM by Kinomescan method relative to control.
Test [11] deals with Epidermal growth factor receptor (Homo sapiens), P00533 [L858R,T790M]. Briefly: Inhibition of human partial length EGFR L858R/T790M double mutant (R669 to V1011 residues) expressed in mammalian expression system at 1 uM by Kinomescan method relative to control.
The target of test [12] is SRSF protein kinase 1 (Homo sapiens) (UniProt Q96SB4). As to the kind of experiment: Inhibition of wild-type human full length SRPK1 (M1 to S655 residues) expressed in bacterial expression system at 1 uM by Kinomescan method relative to control.
SRSF protein kinase 1 (Homo sapiens), sequence (Q96SB4 whole entry, the tested form may be a part): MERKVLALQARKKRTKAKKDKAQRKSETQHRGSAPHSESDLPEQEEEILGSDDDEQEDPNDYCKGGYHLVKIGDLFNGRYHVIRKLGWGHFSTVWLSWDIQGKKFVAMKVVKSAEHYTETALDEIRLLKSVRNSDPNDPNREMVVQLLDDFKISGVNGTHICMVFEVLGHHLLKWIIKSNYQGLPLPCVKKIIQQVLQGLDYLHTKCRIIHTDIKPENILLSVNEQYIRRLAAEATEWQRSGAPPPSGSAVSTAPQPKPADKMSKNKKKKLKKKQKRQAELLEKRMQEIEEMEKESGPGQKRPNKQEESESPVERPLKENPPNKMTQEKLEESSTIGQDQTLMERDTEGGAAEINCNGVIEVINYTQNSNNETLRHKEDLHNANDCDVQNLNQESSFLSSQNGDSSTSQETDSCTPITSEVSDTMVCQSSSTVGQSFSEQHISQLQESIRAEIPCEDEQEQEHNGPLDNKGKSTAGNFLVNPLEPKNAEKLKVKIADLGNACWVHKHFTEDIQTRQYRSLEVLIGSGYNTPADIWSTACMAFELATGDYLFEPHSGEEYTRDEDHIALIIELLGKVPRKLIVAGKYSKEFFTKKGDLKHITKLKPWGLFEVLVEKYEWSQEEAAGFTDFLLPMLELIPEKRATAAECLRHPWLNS
For test [13], the target named is Dual specificity tyrosine-phosphorylation-regulated kinase 1B (Homo sapiens) (UniProt Q9Y463). Briefly: Inhibition of wild-type human full length DYRK1B (M1 to S629 residues) expressed in bacterial expression system at 10 uM by Kinomescan method relative to control.
Dual specificity tyrosine-phosphorylation-regulated kinase 1B (Homo sapiens), sequence (Q9Y463 whole entry, looked up, the tested form may be a part): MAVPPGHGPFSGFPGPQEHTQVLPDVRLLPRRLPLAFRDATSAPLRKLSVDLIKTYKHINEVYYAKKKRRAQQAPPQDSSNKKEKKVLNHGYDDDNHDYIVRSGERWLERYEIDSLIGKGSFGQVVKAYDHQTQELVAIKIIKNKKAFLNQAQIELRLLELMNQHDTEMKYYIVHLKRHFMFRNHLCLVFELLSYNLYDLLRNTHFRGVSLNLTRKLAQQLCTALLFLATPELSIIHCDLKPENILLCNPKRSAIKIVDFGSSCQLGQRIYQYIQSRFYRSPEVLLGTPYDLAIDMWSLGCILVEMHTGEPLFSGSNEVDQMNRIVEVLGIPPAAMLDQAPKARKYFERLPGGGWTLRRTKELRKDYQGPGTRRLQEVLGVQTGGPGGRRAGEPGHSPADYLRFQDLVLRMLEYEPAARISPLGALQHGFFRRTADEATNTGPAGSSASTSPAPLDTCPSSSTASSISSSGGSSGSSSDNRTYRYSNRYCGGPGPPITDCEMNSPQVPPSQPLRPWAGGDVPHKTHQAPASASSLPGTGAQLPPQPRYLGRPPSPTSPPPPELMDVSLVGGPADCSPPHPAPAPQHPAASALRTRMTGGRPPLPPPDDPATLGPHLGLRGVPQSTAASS
Test [14] concerns Mast/stem cell growth factor receptor Kit (Homo sapiens), P10721 [A829P]. As to the kind of experiment: Inhibition of human partial length KIT A829P mutant (I571 to D952 residues) expressed in mammalian expression system at 10 uM by Kinomescan method relative to control.
The target of test [15] is Serine/threonine-protein kinase VRK2 (Homo sapiens) (UniProt Q86Y07). Briefly: Inhibition of wild-type human partial length VRK2 (M1 to T336 residues) expressed in mammalian expression system at 10 uM by Kinomescan method relative to control.
Test [16] addresses Tyrosine-protein kinase Blk (Homo sapiens) (UniProt P51451). Briefly: Inhibition of wild-type human partial length BLK (G211 to L503 residues) expressed in bacterial expression system at 10 uM by Kinomescan method relative to control.
Test [17] addresses Activin receptor type-1-like (Homo sapiens) (UniProt P37023). Briefly: Inhibition of wild-type human ACVRL1 (L164 to Q503 residues) expressed in bacterial expression system at 10 uM by Kinomescan method relative to control.
The target of test [18] is BDNF/NT-3 growth factors receptor (Homo sapiens) (UniProt Q16620). Briefly: Inhibition of wild-type human partial length TRKB (Q547 to G838 residues) expressed in mammalian expression system at 10 uM by Kinomescan method relative to control.
Test [19] has as its target Cyclin-dependent kinase-like 3 (Homo sapiens) (UniProt Q8IVW4). Briefly: Inhibition of wild-type human partial length CDKL3 (M1 to D327 residues) expressed in bacterial expression system at 10 uM by Kinomescan method relative to control.
For test [20], the target named is Mitogen-activated protein kinase kinase kinase 12 (Homo sapiens) (UniProt Q12852). Briefly: Inhibition of wild-type human full length DLK (M1 to P859 residues) expressed in mammalian expression system at 10 uM by Kinomescan method relative to control.
Mitogen-activated protein kinase kinase kinase 12 (Homo sapiens), sequence (Q12852 whole entry, looked up, the tested form may be a part): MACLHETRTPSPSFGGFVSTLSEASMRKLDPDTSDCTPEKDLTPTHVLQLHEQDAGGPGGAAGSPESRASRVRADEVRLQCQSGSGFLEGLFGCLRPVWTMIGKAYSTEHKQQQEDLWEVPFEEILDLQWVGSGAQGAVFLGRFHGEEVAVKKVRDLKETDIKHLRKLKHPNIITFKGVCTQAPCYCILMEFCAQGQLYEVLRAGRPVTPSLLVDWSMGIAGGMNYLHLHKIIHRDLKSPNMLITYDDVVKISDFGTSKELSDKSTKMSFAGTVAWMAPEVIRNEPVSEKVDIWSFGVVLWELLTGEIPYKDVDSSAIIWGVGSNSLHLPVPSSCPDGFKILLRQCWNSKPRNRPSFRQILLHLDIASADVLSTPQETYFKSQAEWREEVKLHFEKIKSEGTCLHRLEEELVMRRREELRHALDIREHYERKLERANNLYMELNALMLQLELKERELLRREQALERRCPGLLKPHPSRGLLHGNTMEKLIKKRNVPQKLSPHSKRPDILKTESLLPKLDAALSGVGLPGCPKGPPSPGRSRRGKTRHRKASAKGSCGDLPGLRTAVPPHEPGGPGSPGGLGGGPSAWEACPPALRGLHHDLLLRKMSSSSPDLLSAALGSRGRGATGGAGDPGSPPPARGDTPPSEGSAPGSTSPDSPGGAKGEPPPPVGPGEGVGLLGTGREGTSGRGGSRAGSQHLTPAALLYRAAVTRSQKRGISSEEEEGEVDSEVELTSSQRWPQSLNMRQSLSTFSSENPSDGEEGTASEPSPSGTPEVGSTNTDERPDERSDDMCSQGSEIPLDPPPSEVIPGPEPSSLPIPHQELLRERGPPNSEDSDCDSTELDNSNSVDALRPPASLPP
Test [21] concerns the target Tyrosine-protein kinase TXK (Homo sapiens) (UniProt P42681). As to the kind of experiment: Inhibition of wild-type human partial length TXK (L238 to W527 residues) expressed in bacterial expression system at 10 uM by Kinomescan method relative to control.
The target of test [22] is Serine/threonine-protein kinase WNK3 (Homo sapiens) (UniProt Q9BYP7). As to the kind of experiment: Inhibition of wild-type human partial length WNK3 (M1 to D434 residues) expressed in mammalian expression system at 10 uM by Kinomescan method relative to control.
Test [23] has as its target Macrophage colony-stimulating factor 1 receptor (Homo sapiens) (UniProt P07333). Briefly: Inhibition of wild-type human partial length autoinhibited CSF1R (Y538 to S939 residues) expressed in mammalian expression system at 10 uM by Kinomescan method relative to control.
In test [24] the target is Serine/threonine-protein kinase Nek9 (Homo sapiens) (UniProt Q8TD19). As to the kind of experiment: Inhibition of wild-type human partial length NEK9 (P32 to R328 residues) expressed in bacterial expression system at 10 uM by Kinomescan method relative to control.
The target of test [25] is LIM domain kinase 2 (Homo sapiens) (UniProt P53671). As to the kind of experiment: Inhibition of wild-type human full length LIMK2 (M1 to P638 residues) expressed in bacterial expression system at 10 uM by Kinomescan method relative to control.
For test [26], the target named is Serine/threonine-protein kinase BRSK2 (Homo sapiens) (UniProt Q8IWQ3). As to the kind of experiment: Inhibition of wild-type human full length BRSK2 (M1 to L674 residues) expressed in bacterial expression system at 10 uM by Kinomescan method relative to control.
Test [27] has as its system Phosphatidylinositol 4,5-bisphosphate 3-kinase catalytic subunit alpha isoform (Homo sapiens), P42336 [E545K]. As to the kind of experiment: Inhibition of human partial length PIK3CA E545K mutant (R108 to N1068 residues) expressed in mammalian expression system at 10 uM by Kinomescan method relative to control.

Activin receptor type-1-like (Homo sapiens), sequence (P37023 whole entry, the tested form may be a part): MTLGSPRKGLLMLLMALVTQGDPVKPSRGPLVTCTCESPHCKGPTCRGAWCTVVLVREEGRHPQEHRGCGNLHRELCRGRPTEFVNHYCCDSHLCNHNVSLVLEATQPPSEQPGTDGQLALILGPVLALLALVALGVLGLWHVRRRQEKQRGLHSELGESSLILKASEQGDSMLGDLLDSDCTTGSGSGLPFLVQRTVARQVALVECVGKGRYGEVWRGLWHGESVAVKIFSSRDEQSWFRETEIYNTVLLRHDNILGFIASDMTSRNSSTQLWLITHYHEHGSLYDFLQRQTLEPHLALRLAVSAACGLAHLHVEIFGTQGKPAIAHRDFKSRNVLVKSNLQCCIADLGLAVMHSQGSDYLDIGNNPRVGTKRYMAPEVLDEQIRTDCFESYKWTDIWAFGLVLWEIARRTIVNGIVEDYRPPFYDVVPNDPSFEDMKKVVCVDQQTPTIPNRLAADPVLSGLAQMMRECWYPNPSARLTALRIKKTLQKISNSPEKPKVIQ
Phosphatidylinositol 4,5-bisphosphate 3-kinase catalytic subunit alpha isoform (Homo sapiens), P42336 [E545K], sequence (P42336 whole entry E545K, the tested form may be a part, canonical isoform): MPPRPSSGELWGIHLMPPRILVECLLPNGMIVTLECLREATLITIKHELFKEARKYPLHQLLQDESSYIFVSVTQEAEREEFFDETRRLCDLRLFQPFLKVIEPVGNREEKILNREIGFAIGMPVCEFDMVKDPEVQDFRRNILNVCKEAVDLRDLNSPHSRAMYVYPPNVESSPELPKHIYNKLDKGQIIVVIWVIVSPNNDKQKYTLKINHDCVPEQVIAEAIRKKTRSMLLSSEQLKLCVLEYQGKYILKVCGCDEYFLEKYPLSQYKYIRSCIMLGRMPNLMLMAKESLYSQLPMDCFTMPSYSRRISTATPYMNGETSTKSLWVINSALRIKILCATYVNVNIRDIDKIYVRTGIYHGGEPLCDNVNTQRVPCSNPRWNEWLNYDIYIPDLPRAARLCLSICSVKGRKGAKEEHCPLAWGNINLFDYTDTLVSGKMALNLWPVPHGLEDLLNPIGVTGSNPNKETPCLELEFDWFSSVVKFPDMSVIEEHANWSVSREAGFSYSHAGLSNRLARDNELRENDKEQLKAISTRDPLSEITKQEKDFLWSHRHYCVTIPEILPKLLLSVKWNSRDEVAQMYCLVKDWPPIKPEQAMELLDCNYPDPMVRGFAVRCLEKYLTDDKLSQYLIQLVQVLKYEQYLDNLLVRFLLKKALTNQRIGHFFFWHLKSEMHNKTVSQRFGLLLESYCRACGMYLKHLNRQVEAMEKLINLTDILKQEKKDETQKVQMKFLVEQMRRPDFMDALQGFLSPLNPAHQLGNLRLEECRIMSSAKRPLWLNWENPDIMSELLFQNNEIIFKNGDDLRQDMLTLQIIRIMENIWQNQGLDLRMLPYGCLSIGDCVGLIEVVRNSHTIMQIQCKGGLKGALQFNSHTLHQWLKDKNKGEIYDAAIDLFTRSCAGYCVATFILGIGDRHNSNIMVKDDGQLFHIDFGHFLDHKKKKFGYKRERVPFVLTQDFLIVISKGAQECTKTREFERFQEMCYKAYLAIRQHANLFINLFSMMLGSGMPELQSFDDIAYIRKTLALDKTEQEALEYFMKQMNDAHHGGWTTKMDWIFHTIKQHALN
Tyrosine-protein kinase Blk (Homo sapiens), sequence (P51451 2-505 limits assumed): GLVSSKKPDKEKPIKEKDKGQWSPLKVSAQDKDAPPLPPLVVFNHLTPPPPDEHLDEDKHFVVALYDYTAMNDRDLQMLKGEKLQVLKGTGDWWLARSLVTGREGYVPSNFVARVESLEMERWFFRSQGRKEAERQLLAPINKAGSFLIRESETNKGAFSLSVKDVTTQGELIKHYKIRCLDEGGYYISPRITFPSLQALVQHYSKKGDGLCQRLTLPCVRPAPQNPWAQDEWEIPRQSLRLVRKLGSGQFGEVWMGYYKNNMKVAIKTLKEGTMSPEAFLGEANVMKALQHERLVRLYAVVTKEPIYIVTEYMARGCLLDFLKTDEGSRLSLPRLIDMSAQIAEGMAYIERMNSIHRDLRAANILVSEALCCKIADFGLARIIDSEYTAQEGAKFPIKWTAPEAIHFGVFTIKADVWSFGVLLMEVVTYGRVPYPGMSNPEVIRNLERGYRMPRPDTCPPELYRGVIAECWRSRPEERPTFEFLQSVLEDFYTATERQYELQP

As for `O=C(Nc1cccc([C@@H]2CN(c3ncnc4[nH]ccc34)CCN2CCO)c1)Nc1c(F)cccc1N1CCCC1`, the inhibition in test [1] amounted to 100%; in [2], 94%; in [3], 100%; in test [4], 79%; in test [5], 100%; in test [6], 100%. The inhibition in test [7] is 70%; in test [8], 2.2%; in test [9] it was 55%; in [10], 56%; in test [11] it was 97%; in test [12], 37%.
For `O=C(Nc1cccc([C@H]2CCCN(c3ncnc4[nH]ccc34)C2)c1)Nc1ccccc1N1CCCC1`, the inhibition in test [13] is 94%; in test [14], 15%; in [15], 93%; in [16], 43%; in [17] it was 100%; in test [18], 69%. Also, the inhibition in test [19] came to 97%; in test [20], 69%; in [21], 94%; in [22], 61%; in [23] it was 64%; in test [24] it was 95%. For the same compound, the inhibition was 100% in test [25], 92% in test [26] and 64% in test [27].
